In patent publication US4603139A, “Bicycle compounds, processes for their preparation and pharmaceutical formulations containing compounds” (Burroughs Wellcome Co., priority 1981, dated 1986):
Values after ≈ are worked out from the molar mass of the structure shown. Counter-ions that a name gives are not always drawn. One block for each molecule: values may come before it.

Assays:
[1] = test system: right ventricular papillary muscle; experiment: in vitro inotropic activity (isolated right ventricular papillary muscle); assay type: cell-based, guinea-pig; details: 75% increase in basal contractile force (Fc), carazolol 5×10^-8 M present, 34° C., cumulative additions; for EC75: Cavia porcellus, read-out: Potency for 75% increase Fc lying within the range
Procedure: The heart was rapidly excised and washed with Krebs-Henesleit solution containing the β-adrenoceptor antagonist carazolol (5×10^-8 M) and gassed with 95% O2 : 5% CO2 at 34° C. The heat was transferred to a petri dish containing the same buffer kept at a constant temperature (34° C.) throughout the dissection. Fresh buffer was used for each dissection and washings were discarded after use. A single right ventricular papillary muscle was employed from each heart; the tendinous end ligated to a stainless steel hook and the lower end ligated and cut away from the ventricle wall and attached to a perspex clamp such that the tissue was in contact with a platimum punctate electrode. The stainless steel hook was suspended from a Grass FT.03 transducer which recorded isometric tension. The preparation was placed in a 20 ml pyrex organ bath containing buffer gassed with 95% O2 : 5% CO2 and maintained at 34° C. 500 mg loading tension was applied to the preparation. Stimulation was effected by rectangular pulses of Imsec duration at 1.5 Hz at 30% above the threshold voltage (1-5 volts) by a SRI stimulator. The transducer inputs were coupled to a potentiometric recording device by a 6-channel Grass transducer coupler. After 90 minutes, preparations unable to sustain uniform contractions beyond this period were rejected.

[2] = test system: anaesthetised, open-chest beagles; experiment: in vivo inotropic and vasodilatory activity; details: Canis lupus familiaris, bolus intravenous, 0.003-3.0 mg/kg; for ED50: increase in dp/dt of left ventricular pressure; for ED30: vasodilatory activity
Procedure: The compounds of Examples 1,2 and 21 were tested in comparison with amrinone and […]. […] This is accompanied by a dose-related increase in aortic blood flow, and a fall in systemic blood pressure (see Table below).

phosphodiesterase = phosphodiesterase inhibitory activity; assay type: biochemical; details: 100 μM, 1 mM and 10 mM; 3H-cAMP 5 uM; guinea pig heart homogenate; 37° C., 30 minutes
Procedure: The determination of phosphodiesterase inhibitory activity was effected by a procedure based on that of Thompson and Appleman (Biochme., 10, 311 (1971)). ^3 H-cAMP (5 uM) is incubated at 37° C. for 30 minutes with the 1000Xg supernatent of a 10% (w/v) homogenate of guinea pig heart in 50 mM-Tris/HCL pH7+5 mM-mgCI2 in either the presence or the absence of the compound of Example 21 which, in the former case, is dissolved in Tris buffer to give final concentrations of 100 uM, 1 mM and 10 mM. Phosphodiesterase enzyme in the homogenate hydrolyses ^3 H-cAMP to ^3 H-5'-AMP which is further converted to ^3 H-adenosine by a 5'-nucleotidase added to the incubation mixture. After a period of incubation unchanged ^3 H-cAMP is removed by adding ion exchange resin to the mixture and centrifuging. The ^3 H in the supernatent is assayed by liquid scintillation counting and gives a quantitative measure of adenosine formation (i.e. cAMP hydrolysis). Comparison of the ^3 H-adenosine formed in the presence and absence of test compound gives a measure of the PDE-inhibitory activity of the compound.

[3] = test system: ADP-induced platelet aggregation; experiment: ex vivo inhibition of platelet aggregation; assay type: in vivo; details: Macaca mulatta, iv, anaesthetised rhesus monkey, read-out: effective dose causing 50% inhibition of aggregation
Procedure: Rhesus monkeys of both sexes (7.3-9 kg, body weight) were sedated with phencyclidine, subsequently anaesthetised with thiopentone and maintained with sodium pentobarbitone. Catheters were placed in the left femoral artery to record blood pressure and in the left femoral vein for administration of drugs. A further catheter was placed in the contralateral femoral artery for the removal of blood samples. Heart rate was recorded from ECG (standard lead II). A left ventricular catheter was introduced via the left carotid artery to measure left ventricular pressure. […] Rectal temperature of the anaesthetised monkey was maintained at 37°-38° C. via a heated table-pad.
Blood samples (3 ml) were withdrawn into syringes containing trisodium citrate (0.315% w/v final concentration), and spun for […]. The platelet rich-plasma was transferred to a Born-type aggregometer and incubated for 1 min (at 37° C.) prior to the addition of sufficient ADP to induce sub-maximal (1.5-3 μM) or near maximal (8-12 μM) aggregation. Inhibition of aggregation was calculated with reference to at least 2 control samples prior to intravenous infusion of compound A. The sequence of administration of compound A was randomized between experiments. The effective dose of compound A which caused 50% inhibition of aggregation is 1.0 mg/kg i.v. (approximately).

[4] = test system: ADP-induced platelet aggregation; experiment: in vitro inhibition of platelet aggregation; assay type: cell-based, rhesus monkey; details: Macaca mulatta, 1 min, platelet-rich plasma, 37° C., read-out: ID50 (dose causing 50% inhibition of platelet aggregation)
Procedure: Blood was freshly collected into siliconized (Siloclad; Clay Adams) plastic (Sterlin Ltd.) tubes containing trisodium citrate (3.15%; 0.1 volume with 0.9 volume blood) and centrifuged (200 g for 15 min) at room temperature. The platelet-rich plasma (PRP) was withdrawn into plastic containers and kept at room temperature. Inhibition of platelet aggregation was determined in a Born-type aggregometer by incubating aliquots (0.5 ml) of the PRP for 1 min at 37° C. with or without compound A prior to addition of sufficient adenosine diphosphate (ADP). Dose-inhibition curves were constructed for each compound and the ID50 (dose causing 50% inhibition) was calculated as the dose required to reduce the aggregation to 50% of its control amplitude. The ID50 for compound A is 1 mg/ml (approximately).

myocardial injury = myocardial injury following selective ligation of the coronary artery in vivo
ischaemic heart = experiment: ventricular vulnerability to arrythmias in the ischaemic heart; assay type: in vivo
[5] = test system: myocardial β-adrenoceptors; details: Brutsaert et al 1982; Pouleur et al 1982; cited from earlier work
[6] = test system: myocardial phosphodiesterase; details: Diederan and Wiesenberger, 1981; cited from earlier work

Molecule: COc1cc(Cl)ccc1-c1nc2cnccc2[nH]1 [Example 10, 2-(2-methoxy-4-chlorophenyl)-1H-imidazo[4,5-c]pyridine hydrochloride]
EC75 [1]: 10 to 100 µM

Molecule: COc1cc([S+](C)[O-])ccc1-c1nc2cnccc2[nH]1.Cl (stereo not drawn) [Example 23, 2-(2-Methoxy-4-methylsulphinylphenyl)-1H-imidazo[4,5-c]pyridine hydrochloride]
Potency for 75% increase Fc lying within the range [1]: 10^-4 -10^-3 M

Molecule: COc1ccc(-c2nc3ccncc3n2C)c(OC)c1 [Example 40, 3-Methyl-2-(2,4-dimethoxyphenyl)-1H-imidazo[4,5-c]pyridine]
EC75 [1]: > 1000 µM

Molecule: COc1ccc(-c2nc3cnccc3[nH]2)cc1.Cl.Cl [Example 2, 2-(4-Methoxyphenyl)-1H-imidazo[4,5-c]pyridine dihydrochloride]
ED50 [2]: 2 mg/kg
ED30 [2]: 5.1 mg/kg

Molecule: COc1ccc(-c2nc3cnccc3n2C)c(OC)c1 [Example 41, 1-Methyl-2-(2,4-dimethoxyphenyl)-1H-imidazo[4,5-c]pyridine]
EC75 [1]: > 1000 µM

Molecule: COc1ccc(-c2nc3cnccc3[nH]2)cc1OC [Example 8, 2-(3,4-dimethoxyphenyl)-1H-imidazo[4,5-c]pyridine dihydrochloride]
EC75 [1]: 10 to 100 µM

PDE inhibitory activity (phosphodiesterase): no PDE inhibitory activity
IC50 [4]: ~1000 µg/mL (≈ 3.48 mM)
Molecule: COc1cc([S+](C)[O-])ccc1-c1nc2cnccc2[nH]1 (stereo not drawn) [Example 21, 2-(2-Methoxy-4-methylsulphinylphenyl)-1H-imidazo[4,5-c]pyridine]
EC75 [1]: 100 to 1000 µM
ED50 [2]: 0.063 mg/kg
ED30 [2]: 0.19 mg/kg
ED50 [3]: ~1 mg/kg
effect on myocardial injury (myocardial injury): does not exacerbate myocardial injury
effect on ventricular vulnerability to arrythmias (ischaemic heart): does not increase ventricular vulnerability to arrythmias

Molecule: COc1ccc(-c2nc3c[n+]([O-])ccc3[nH]2)c(OC)c1 [Example 38, 2-(2,4-Dimethoxyphenyl)-1H-imidazo[4,5-c]pyridineN^5-oxide hydrate]
EC75 [1]: > 1000 µM

Molecule: COc1cc([S+](C)[O-])ccc1-c1nc2ncccc2[nH]1 (stereo not drawn) [Vardax, 2-[(2-methoxy-4-methylsulphinyl)phenyl]-1H-imidazo[4,5-b]pyridine, reference compound]
ED50 [2]: 1 mg/kg
ED30 [2]: 2.11 mg/kg
contribution of myocardial β-adrenoceptor stimulation to positive inotropic stimulation [5]: at least part of the positive inotropic stimulation
inhibition of myocardial phosphodiesterase [6]: effective inhibitor of myocardial phosphodiesterase

Molecule: COc1ccc(-c2nc3cnccc3[nH]2)c(OC)c1 [Example 1, 2-(2,4-Dimethoxyphenyl)-1H-imidazo[4,5-c]pyridine]
EC75 [1]: 100 to 1000 µM
ED50 [2]: 0.13 mg/kg
ED30 [2]: 0.24 mg/kg

Molecule: COc1ccc(-c2nc3cnccc3[nH]2)c([S+](C)[O-])c1 (stereo not drawn) [Example 22, 2-(2-Methylsulphinyl-4-methoxyphenyl)-1H-imidazo[4,5-c]pyridine hydrochloride]
EC75 [1]: > 1000 µM

Molecule: COc1cc(S(C)(=O)=O)ccc1-c1nc2cnccc2[nH]1 [Example 32, 2-(2-Methoxy-4-methylsulphonylphenyl)-1H-imidazo[4,5-c]pyridine]
EC75 [1]: 100 to 1000 µM

Molecule: COc1cc(-c2nc3cnccc3[nH]2)cc(OC)c1OC [Example 3, 2-(3,4,5-trimethoxyphenyl)-1H-imidazo[4,5-c]pyridine dihydrochloride]
EC75 [1]: > 1000 µM

Molecule: 2-(2-methylsulphinyl)-1H-imidazo[4,5-c]pyridine hydrochloride [Example 50]
Potency for 75% increase Fc lying within the range [1]: > 10^-3 M

Molecule: Nc1cc(-c2ccncc2)c[nH]c1=O [Amrinone, reference compound]
ED50 [2]: 1 mg/kg
ED30 [2]: 2 mg/kg

Molecule: COc1ccc(-c2nc3cnccc3[nH]2)cc1SC [Example 34, 2-(3-Methylthio-4-methoxyphenyl)-1H-imidazo-[4,5-c]pyridine dihydrochloride]
EC75 [1]: 100 to 1000 µM

Molecule: COc1ccc(-c2nc3cnccc3[nH]2)cc1[S+](C)[O-] (stereo not drawn) [Example 35, 2-(3-Methylsulphinyl-4-methoxyphenyl)-1H-imidazo[4,5-c]pyridine]
EC75 [1]: > 1000 µM

Molecule: CSc1ccccc1-c1nc2cnccc2[nH]1 [Example 29, 2-(2-methylthiophenyl)-1H-imidazo[4,5-c]pyridine hydrochloride]
EC75 [1]: 100 to 1000 µM

Molecule: COc1ccccc1-c1nc2cnccc2[nH]1 [Example 7, 2-(2-methoxyphenyl)-1H-imidazo[4,5-c]pyridine hydrochloride]
EC75 [1]: 100 to 1000 µM
